# Literature values, collected in patent US11147270B2, “Pesticide based on formation of formate anion in situ” (priority 2018, dated 2021).
# Settings: at 20° C.
smiles,measurement,value
Cl [hydrochloric acid],vapor pressure,approximately 32452 mmHg
